Assay results as given in US20050061967A1, “Pattern recognition of whole cell mass spectra” (priority 2003, published 2005).

Tests used:
Experiment in all cases: MIC of antibiotics, antibiotic resistance profile of Salmonella enterica isolates
Assay type in all cases: cell-based
[1] = system: Salmonella enterica serotype Worthington isolates
Excerpt: (§1) To identify charge state of each ion cluster, we performed the following analyses on twenty-nine Salmonella enterica isolates (21 of serotype Heidelberg, 3 Anatum, 3 Worthington and 2 Muenster) from a turkey production environment. From the high mass end of the spectrum, we divided each ion peak by 2 or 3, look there for a corresponding peak. Ions at small integer dividends are then tabulated together with the largest, assumed to be a+1 charge state. Based on the assigned charge state, sum intensities (in the raw spectra) arising from nearby adducts or losses were calculated at their charge-state-predicted interval. The total around each same-charge-state cluster were added to the total for the same biomarker at its other identified charge states. Spectra were smoothed, the background was subtracted and then peaks were detected. Deconvolution was based on peaks at least 3% intensity of the base peak.
(§2) The Salmonella enterica isolates were also typed by their antibiotic resistance and Pulsed-Field Gel Electrophoresis (PFGE) patterns. The isolates'=0 resistance profile, a common and obviously important phenotypic assay, was determined for twenty antibiotics commonly used in veterinary medicine to control Salmonella infections. PFGE is the most common and widely accepted genotypic method currently in use. The PFGE patterns were analyzed by statistical pattern recognition to produce a dendrogram in which similar gel patterns are clustered so that they appear in or near the same branch of a similarity “tree.” Then the two types of mass spectra for the same twenty-nine samples, under several variations, were also evaluated by pattern recognition.

[2] = system: Salmonella enterica serotype Anatum isolates
Excerpt: as §1, §2

[3] = system: Salmonella enterica serotype Heidelberg isolates
Method: as §2

[4] = system: Salmonella enterica serotype Muenster isolates
Excerpt: as §1, §2

[5] = 1st of 29 isolates (ID cell blank), turkey production environment
[6] = 2nd of 29 isolates (ID cell blank)
[7] = 3rd of 29 isolates (ID cell blank)
[8] = 6th of 29 isolates (ID cell blank)
[9] = 7th of 29 isolates (ID cell blank)
[10] = 9th of 29 isolates (ID cell blank)
[11] = 18th of 29 isolates (ID printed 8)
[12] = 22nd of 29 isolates (ID printed 2)
[13] = 29th of 29 isolates (ID printed 9)

| SMILES | MIC ([1]; 26th of 29 isolates (ID 6)) | MIC [2, 5] | MIC [2, 6] | MIC [2, 7] | MIC ([3]; 10th of 29 isolates (ID 0)) | MIC ([3]; 24th of 29 isolates (ID 4)) | MIC [3, 8] | MIC [3, 9] | MIC [3, 10] | MIC ([3]; 11th of 29 isolates (ID 1)) | MIC ([3]; 13th of 29 isolates (ID 3)) | MIC ([3]; 14th of 29 isolates (ID 4)) | MIC ([3]; 15th of 29 isolates (ID 5)) | MIC ([3]; 16th of 29 isolates (ID 6)) | MIC [3, 11] | MIC ([3]; 20th of 29 isolates (ID 0)) | MIC ([3]; 21st of 29 isolates (ID 1)) | MIC [3, 12] | MIC [4, 13] | also measured |
| --- | --- | --- | --- | --- | --- | --- | --- | --- | --- | --- | --- | --- | --- | --- | --- | --- | --- | --- | --- | --- |
| CN(C)C1C(O)=C(C(N)=O)C(=O)C2(O)C(O)=C3C(=O)c4c(O)cccc4C(C)(O)C3CC12 (stereo not drawn) [Te] | 32 µg/mL | 512 µg/mL | 256 µg/mL | 256 µg/mL | 256 µg/mL | 256 µg/mL | – | – | – | – | – | – | – | – | – | – | – | – | – | MIC ([1]; 17th of 29 isolates (ID printed 7)): 32 µg/mL; MIC ([1]; 27th of 29 isolates (ID printed 7)): 32 µg/mL; MIC ([3]; 5th of 29 isolates (ID cell blank)): 128 µg/mL |
| CN[C@@H]1[C@H](O)[C@H](NC)[C@H]2O[C@@]3(O)C(=O)C[C@@H](C)O[C@H]3O[C@@H]2[C@H]1O [Spt] | – | – | – | – | >512 µg/mL | >512 µg/mL | >512 µg/mL | >512 µg/mL | >512 µg/mL | >512 µg/mL | >512 µg/mL | >512 µg/mL | >512 µg/mL | >512 µg/mL | >512 µg/mL | >512 µg/mL | >512 µg/mL | >512 µg/mL | – | – |
| CC[C@H]1OC(=O)[C@H](C)[C@@H](O[C@H]2C[C@@](C)(OC)[C@@H](O)[C@H](C)O2)[C@H](C)[C@@H](O[C@@H]2O[C@H](C)C[C@H](N(C)C)[C@H]2O)[C@](C)(O)C[C@@H](C)C(=O)[C@H](C)[C@@H](O)[C@]1(C)O [Er] | 64 µg/mL | – | – | – | 512 µg/mL | – | >512 µg/mL | – | 512 µg/mL | 512 µg/mL | 512 µg/mL | 512 µg/mL | 512 µg/mL | – | – | 512 µg/mL | – | – | 32 µg/mL | MIC ([4]; 28th of 29 isolates (ID printed 8)): 512 µg/mL; MIC ([3]; 4th of 29 isolates (ID cell blank)): 512 µg/mL; MIC ([3]; 8th of 29 isolates (ID cell blank)): 512 µg/mL |
| CN[C@@H]1[C@H](O[C@H]2[C@H](O[C@H]3[C@H](O)[C@@H](O)[C@H](N=C(N)N)[C@@H](O)[C@@H]3N=C(N)N)O[C@@H](C)[C@]2(O)C=O)O[C@@H](CO)[C@H](O)[C@H]1O [St] | – | 256 µg/mL | 256 µg/mL | 256 µg/mL | >256 µg/mL | >256 µg/mL | >256 µg/mL | >256 µg/mL | >256 µg/mL | >256 µg/mL | >256 µg/mL | >256 µg/mL | >256 µg/mL | >256 µg/mL | >256 µg/mL | >256 µg/mL | >256 µg/mL | >256 µg/mL | >256 µg/mL | – |
